Reference: PubChem BioAssay (NCI)
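Five concentrations, 48 hours, 96-well plates. Abbreviation: GI50, concentration required for 50% inhibition of growth. Definition used: TGI = concentration required for complete inhibition of growth.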

Key:
Experiment in all cases: inhibition of tumour cell growth, NCI panel, 48 h
786-0 renal = system: 786-0 renal
A498 renal = system: A498 renal
A549 NSCLC = system: A549 NSCLC
ACHN renal = system: ACHN renal
BT-549 breast = system: BT-549 breast
CAKI-1 renal = system: CAKI-1 renal
CCRF-CEM leukemia = system: CCRF-CEM leukemia
COLO 205 colon = system: COLO 205 colon
DU-145 prostate = system: DU-145 prostate
EKVX NSCLC = system: EKVX NSCLC
HCC-2998 colon = system: HCC-2998 colon
HCT-116 colon = system: HCT-116 colon
HCT-15 colon = system: HCT-15 colon
HL-60(TB) leukemia = system: HL-60(TB) leukemia
HOP-62 NSCLC = system: HOP-62 NSCLC
HOP-92 NSCLC = system: HOP-92 NSCLC
HS 578T breast = system: HS 578T breast
HT29 colon = system: HT29 colon
IGROV1 ovarian = system: IGROV1 ovarian
K-562 leukemia = system: K-562 leukemia
KM12 colon = system: KM12 colon
LOX IMVI melanoma = system: LOX IMVI melanoma
M14 melanoma = system: M14 melanoma
MALME-3M melanoma = system: MALME-3M melanoma
MCF7 breast = system: MCF7 breast
MDA-MB-231 breast = system: MDA-MB-231 breast
MDA-MB-435 = system: MDA-MB-435
MOLT-4 leukemia = system: MOLT-4 leukemia
NCI-H226 lung = system: NCI-H226 lung
NCI-H23 lung = system: NCI-H23 lung
NCI-H460 lung = system: NCI-H460 lung
NCI-H522 lung = system: NCI-H522 lung
NCI/ADR-RES ovarian = system: NCI/ADR-RES ovarian
OVCAR-3 ovarian = system: OVCAR-3 ovarian
OVCAR-4 ovarian = system: OVCAR-4 ovarian
OVCAR-5 ovarian = system: OVCAR-5 ovarian
OVCAR-8 ovarian = system: OVCAR-8 ovarian
PC-3 prostate = system: PC-3 prostate
RPMI-8226 leukemia = system: RPMI-8226 leukemia
RXF 393 renal = system: RXF 393 renal
SF-268 CNS = system: SF-268 CNS
SF-295 CNS = system: SF-295 CNS
SF-539 CNS = system: SF-539 CNS
SK-MEL-2 melanoma = system: SK-MEL-2 melanoma
SK-MEL-28 melanoma = system: SK-MEL-28 melanoma
SK-MEL-5 melanoma = system: SK-MEL-5 melanoma
SK-OV-3 ovarian = system: SK-OV-3 ovarian
SN12C renal = system: SN12C renal
SNB-19 CNS = system: SNB-19 CNS
SNB-75 CNS = system: SNB-75 CNS
SR leukemia = system: SR leukemia
SW-620 colon = system: SW-620 colon
T-47D breast = system: T-47D breast
TK-10 renal = system: TK-10 renal
U251 CNS = system: U251 CNS
UACC-257 melanoma = system: UACC-257 melanoma
UACC-62 melanoma = system: UACC-62 melanoma
UO-31 renal = system: UO-31 renal

How did the GI50 (786-0 renal) turn out when `Cc1ccc(-c2nc3nc(-c4ccc(Br)cc4)nc(N4CCCNCC4)c3o2)cc1` was run?
The GI50 was 3.95 µM.

And the TGI (786-0 renal)?
Its TGI is 16 µM.

What about the GI50 (A498 renal) of the same molecule?
Its GI50 is 13.9 µM.

What about the TGI (A498 renal) of the same molecule?
Its TGI is 27.5 µM.

What about the GI50 (A549 NSCLC) of the same molecule?
The GI50 was 1.96 µM.

What about the TGI (A549 NSCLC) of the same molecule?
The TGI was 4.04 µM.

What about the GI50 (ACHN renal) of the same molecule?
Its GI50 is 1.91 µM.

And the TGI (ACHN renal)?
Its TGI is 3.59 µM.

And the GI50 (BT-549 breast)?
The GI50 was 16 µM.

What about the TGI (BT-549 breast) of the same molecule?
The TGI was 34.6 µM.

And the GI50 (CAKI-1 renal)?
Its GI50 is 1.58 µM.

What about the TGI (CAKI-1 renal) of the same molecule?
Its TGI is 2.92 µM.

What about the GI50 (CCRF-CEM leukemia) of the same molecule?
The GI50 was 2.35 µM.

And the TGI (CCRF-CEM leukemia)?
The TGI was 5.57 µM.

What about the GI50 (COLO 205 colon) of the same molecule?
Its GI50 is 5.56 µM.

What about the TGI (COLO 205 colon) of the same molecule?
Its TGI is 20.2 µM.

And the GI50 (DU-145 prostate)?
The GI50 was 1.92 µM.

And the TGI (DU-145 prostate)?
Its TGI is 3.55 µM.

And the GI50 (EKVX NSCLC)?
Its GI50 is 13.8 µM.

What about the TGI (EKVX NSCLC) of the same molecule?
Its TGI is 28.4 µM.

And the GI50 (HCC-2998 colon)?
The GI50 was 15.4 µM.

What about the TGI (HCC-2998 colon) of the same molecule?
The TGI was 30.2 µM.

And the GI50 (HCT-116 colon)?
Its GI50 is 1.82 µM.

And the TGI (HCT-116 colon)?
Its TGI is 3.36 µM.

What about the GI50 (HCT-15 colon) of the same molecule?
The GI50 was 1.72 µM.

What about the TGI (HCT-15 colon) of the same molecule?
The TGI was 3.25 µM.

What about the GI50 (HL-60(TB) leukemia) of the same molecule?
Its GI50 is 1.99 µM.

What about the TGI (HL-60(TB) leukemia) of the same molecule?
The TGI was 4.07 µM.

What about the GI50 (HOP-62 NSCLC) of the same molecule?
The GI50 was 15.8 µM.

What about the TGI (HOP-62 NSCLC) of the same molecule?
The TGI was 35.1 µM.

And the GI50 (HOP-92 NSCLC)?
The GI50 was 12.7 µM.

And the TGI (HOP-92 NSCLC)?
The TGI was 29.5 µM.

And the GI50 (HS 578T breast)?
Its GI50 is 17.2 µM.

And the TGI (HS 578T breast)?
Its TGI is 37.1 µM.

What about the GI50 (HT29 colon) of the same molecule?
Its GI50 is 1.86 µM.

What about the TGI (HT29 colon) of the same molecule?
Its TGI is 3.54 µM.

And the GI50 (IGROV1 ovarian)?
Its GI50 is 1.84 µM.

And the TGI (IGROV1 ovarian)?
The TGI was 3.61 µM.

What about the GI50 (K-562 leukemia) of the same molecule?
The GI50 was 2.31 µM.

And the TGI (K-562 leukemia)?
The TGI was 4.98 µM.

And the GI50 (KM12 colon)?
The GI50 was 1.93 µM.

What about the TGI (KM12 colon) of the same molecule?
The TGI was 3.82 µM.

And the GI50 (LOX IMVI melanoma)?
The GI50 was 1.76 µM.

What about the TGI (LOX IMVI melanoma) of the same molecule?
The TGI was 3.34 µM.

What about the GI50 (M14 melanoma) of the same molecule?
The GI50 was 4.64 µM.

And the TGI (M14 melanoma)?
Its TGI is 18.1 µM.

And the GI50 (MALME-3M melanoma)?
Its GI50 is 15.4 µM.

What about the TGI (MALME-3M melanoma) of the same molecule?
Its TGI is 30.1 µM.

What about the GI50 (MCF7 breast) of the same molecule?
Its GI50 is 1.78 µM.

What about the TGI (MCF7 breast) of the same molecule?
Its TGI is 3.51 µM.

And the GI50 (MDA-MB-231 breast)?
The GI50 was 1.93 µM.

And the TGI (MDA-MB-231 breast)?
The TGI was 4.05 µM.

And the GI50 (MDA-MB-435)?
Its GI50 is 1.88 µM.

What about the TGI (MDA-MB-435) of the same molecule?
The TGI was 3.74 µM.

What about the GI50 (MOLT-4 leukemia) of the same molecule?
The GI50 was 2.08 µM.

What about the TGI (MOLT-4 leukemia) of the same molecule?
The TGI was 4.14 µM.

What about the GI50 (NCI-H226 lung) of the same molecule?
Its GI50 is 17 µM.

And the TGI (NCI-H226 lung)?
The TGI was 38.9 µM.

And the GI50 (NCI-H23 lung)?
Its GI50 is 17.1 µM.

And the TGI (NCI-H23 lung)?
Its TGI is 34.9 µM.

And the GI50 (NCI-H460 lung)?
The GI50 was 1.9 µM.

What about the TGI (NCI-H460 lung) of the same molecule?
The TGI was 3.61 µM.

What about the GI50 (NCI-H522 lung) of the same molecule?
Its GI50 is 1.86 µM.

And the TGI (NCI-H522 lung)?
Its TGI is 4.5 µM.

What about the GI50 (NCI/ADR-RES ovarian) of the same molecule?
The GI50 was 2.2 µM.

And the TGI (NCI/ADR-RES ovarian)?
Its TGI is 4.58 µM.

What about the GI50 (OVCAR-3 ovarian) of the same molecule?
Its GI50 is 1.84 µM.

And the TGI (OVCAR-3 ovarian)?
The TGI was 3.36 µM.

And the GI50 (OVCAR-4 ovarian)?
The GI50 was 7.2 µM.

And the TGI (OVCAR-4 ovarian)?
The TGI was 21 µM.

What about the GI50 (OVCAR-5 ovarian) of the same molecule?
Its GI50 is 16.3 µM.

What about the TGI (OVCAR-5 ovarian) of the same molecule?
Its TGI is 30 µM.

What about the GI50 (OVCAR-8 ovarian) of the same molecule?
Its GI50 is 2.28 µM.

And the TGI (OVCAR-8 ovarian)?
The TGI was 5.28 µM.

And the GI50 (PC-3 prostate)?
The GI50 was 2.48 µM.

What about the TGI (PC-3 prostate) of the same molecule?
Its TGI is 7.52 µM.

And the GI50 (RPMI-8226 leukemia)?
Its GI50 is 2.58 µM.

What about the TGI (RPMI-8226 leukemia) of the same molecule?
The TGI was 6.63 µM.

What about the GI50 (RXF 393 renal) of the same molecule?
The GI50 was 13.7 µM.

And the TGI (RXF 393 renal)?
Its TGI is 27.5 µM.

What about the GI50 (SF-268 CNS) of the same molecule?
The GI50 was 3.63 µM.

What about the TGI (SF-268 CNS) of the same molecule?
Its TGI is 15.2 µM.

And the GI50 (SF-295 CNS)?
Its GI50 is 17.9 µM.

And the TGI (SF-295 CNS)?
Its TGI is 33 µM.

And the GI50 (SF-539 CNS)?
The GI50 was 3.27 µM.

And the TGI (SF-539 CNS)?
Its TGI is 11.4 µM.

And the GI50 (SK-MEL-2 melanoma)?
Its GI50 is 18.5 µM.

And the TGI (SK-MEL-2 melanoma)?
Its TGI is 36.3 µM.

What about the GI50 (SK-MEL-28 melanoma) of the same molecule?
Its GI50 is 17.4 µM.

And the TGI (SK-MEL-28 melanoma)?
Its TGI is 31.8 µM.

And the GI50 (SK-MEL-5 melanoma)?
Its GI50 is 16.7 µM.

And the TGI (SK-MEL-5 melanoma)?
Its TGI is 31.6 µM.

And the GI50 (SK-OV-3 ovarian)?
The GI50 was 17.5 µM.

And the TGI (SK-OV-3 ovarian)?
The TGI was 33.4 µM.

And the GI50 (SN12C renal)?
Its GI50 is 10.5 µM.

And the TGI (SN12C renal)?
The TGI was 23.7 µM.

And the GI50 (SNB-19 CNS)?
The GI50 was 14.1 µM.

And the TGI (SNB-19 CNS)?
Its TGI is 27.6 µM.

What about the GI50 (SNB-75 CNS) of the same molecule?
Its GI50 is 10.5 µM.

What about the TGI (SNB-75 CNS) of the same molecule?
Its TGI is 22.4 µM.

What about the GI50 (SR leukemia) of the same molecule?
Its GI50 is 1.78 µM.

What about the TGI (SR leukemia) of the same molecule?
Its TGI is 4.4 µM.

What about the GI50 (SW-620 colon) of the same molecule?
The GI50 was 1.84 µM.

What about the TGI (SW-620 colon) of the same molecule?
Its TGI is 3.57 µM.

What about the GI50 (T-47D breast) of the same molecule?
Its GI50 is 3.06 µM.

What about the TGI (T-47D breast) of the same molecule?
The TGI was 13.9 µM.

What about the GI50 (TK-10 renal) of the same molecule?
Its GI50 is 20 µM.

What about the TGI (TK-10 renal) of the same molecule?
Its TGI is 34.8 µM.

What about the GI50 (U251 CNS) of the same molecule?
The GI50 was 1.77 µM.

And the TGI (U251 CNS)?
Its TGI is 3.45 µM.

What about the GI50 (UACC-257 melanoma) of the same molecule?
The GI50 was 18.2 µM.

What about the TGI (UACC-257 melanoma) of the same molecule?
The TGI was 39.7 µM.

What about the GI50 (UACC-62 melanoma) of the same molecule?
The GI50 was 17 µM.

And the TGI (UACC-62 melanoma)?
The TGI was 31.9 µM.

And the GI50 (UO-31 renal)?
The GI50 was 2.12 µM.

And the TGI (UO-31 renal)?
Its TGI is 7.04 µM.
